Experimental data as given in patent US9669060B2, “Compositions for preventing and treating uterine disease” (CORNELL UNIVERSITY, priority 2009, dated 2017).
Values after ≈ are worked out from the molar mass of the structure shown. Read-outs that look alike come from different tables or passages of the source.

Key:
[1] = test system: Escherichia coli recovered from uterine secretion from Holstein dairy cows (n = 80 isolates); test: Antimicrobial susceptibility assay, MIC by broth microdilution (CLSI); type: cell-based; settings: for MIC50 / MIC90: Escherichia coli, 18 hours at 37° C.; for MIC50: MIC that inhibits at least 50% of isolates; for MIC90: MIC that inhibits at least 90% of isolates
Protocol: The MIC determinations were performed by broth microdilution method as described by the Clinical and Laboratory Standards Institute (CLSI, 2008) recommendations. […] The dilutions for each antimicrobial tested ranged from 0.25 μg/ml to 256 μg/ml for all the antibiotics and all tests were performed in duplicates. The cultures were diluted in Mueller-Hinton broth to 10^5 CFU/ml and an aliquot of 200 μl of the diluted culture was added to microtiter plate wells, containing various concentrations of the antimicrobials, to a total volume of 300 μl per well. The assays were carried out in duplicates and the required controls of adequacy of the broth to support the growth of the microorganism and the sterility of the broth done.
In addition to the uterine E. coli isolates tested, the reference strain of E. coli ATCC 25922 was included as quality control for MIC determination, as recommended by the CLSI (CLSI, 2008). The MIC that inhibits at least 50% (MIC50) and at least 90% (MIC90) of the isolates, as well as the minimum and maximum MIC, were also derived.

[2] = test system: Escherichia coli isolated from the uterus of postpartum Holstein dairy cows (57 isolates); test: Kinetic (spectrophotometric) MIC and growth curve test with antimicrobials; type: cell-based; settings: for MIC: Escherichia coli, minimum concentration that completely inhibited growth for 2-3 hours after beginning of stationary phase of control, estimated from graphics, read-out: Mean MICs; for Mean OD600: growth curve during 10 hours at 37° C., Mueller-Hinton broth
Text: Growth was periodically assessed spectrophotometrically in a microplate reader (Synergy™ 2, BioTek) at 600 nm. Curves were plotted with average of the duplicates. The results of this kinetic test were statistically analyzed to derive the mean MIC (mMIC) of the isolates for each antimicrobial tested.
A general linear mixed model was used to analyze the effect of the different antibiotic concentrations and bacteriophage MOIs on the growth curve of 57 E. coli isolates and determinate the mean values. The outcome variable was the OD600 of the Mueller-Hinton (BBL™) broth culture, which was modeled as a Gaussian (normally distributed data) variable. The assumption that the residuals were normally distributed was satisfied by visually evaluating the distribution plot of the studentized residuals. The independent variables offered to the model were: treatment (bacteriophage cocktail and all antimicrobials tested) and time (from 1 until 10). The interaction of treatment and time was also included in the model. […] This implies that data points were correlated within each E. coli isolate. To account appropriately for within correlation of the optical density, we modeled the error term by imposing a first-order autoregressive covariance structure. Variables and interaction were considered significant when their P-values<0.05.

[3] = test system: E. coli from calves; settings: cited from earlier work
[4] = test system: uropathogenic E. coli; settings: fimH immunization, murine model (Langermann et al., 1997); cited from earlier work

Row | Molecule | isolates resistant (CLSI criteria) [1] | MIC50 [1] [µg/mL] | MIC90 [1] [µg/mL] | MIC [2] [µg/mL] | Mean OD600 [2] | occurrence of ampicillin-resistant E. coli ([3]; feces of healthy lactating dairy calves (Sawant et al., 2007)) [%] | E. coli isolates resistant to both florfenicol and chloramphenicol ([3]; diarrheic dairy calves (White et al., 2000)) [%] | prevention of in vivo colonization of the bladder mucosa [4] [%] | isolates susceptible [1] [%] | prevalence rate of ceftiofur-resistant E. coli ([3]; Bradford et al., 1999) [%] | prevalence rate of ceftiofur-resistant E. coli ([3]; Sawant et al., 2007) [%] | occurrence of ceftiofur-resistant E. coli ([3]; diarrheic calves (White et al.)) [%]
1 | CC1(C)S[C@@H]2[C@H](NC(=O)[C@H](N)c3ccccc3)C(=O)N2[C@H]1C(=O)O [Ampicillin, ampicillin] | 33.7% | 16 (≈ 45.8 µM) | 32 (≈ 91.6 µM) | 16 | 0.14 | 48 |  |  |  |  |  | 
2 | CS(=O)(=O)c1ccc([C@@H](O)[C@@H](CF)NC(=O)C(Cl)Cl)cc1 [Florfenicol, florfenicol] | 100% | 16 (≈ 44.7 µM) | 16 (≈ 44.7 µM) | 16 | 0.10 |  | 85 |  |  |  |  | 
3 | O=C(N[C@H](CO)[C@H](O)c1ccc([N+](=O)[O-])cc1)C(Cl)Cl [Chloramphenicol, chloramphenicol] | 100% | 64 (≈ 198 µM) | 128 (≈ 396 µM) | 128 | 0.18 |  |  |  |  |  |  | 
4 | CN[C@@H]1[C@H](O)[C@H](NC)[C@H]2O[C@@]3(O)C(=O)C[C@@H](C)O[C@H]3O[C@@H]2[C@H]1O [Spectinomycin, spectinomycin] | none of them were resistant | 32 (≈ 96.3 µM) | 64 (≈ 193 µM) | 32 | 0.17 |  |  |  |  |  |  | 
5 | [H]/N=C(/N)N[C@H]1[C@H](O)[C@@H](O)[C@H](O[C@@H]2O[C@@H](C)[C@](O)(C=O)[C@H]2O[C@@H]2O[C@@H](CO)[C@H](O)[C@@H](O)[C@@H]2NC)[C@@H](N/C(N)=N\[H])[C@@H]1O [Streptomycin, streptomycin] | none of them were resistant | 8 (≈ 13.8 µM) | 8 (≈ 13.8 µM) | 8 | 0.11 |  |  |  |  |  |  | 
6 | fimH: fimH adhesin of type 1 pili used for immunization in a murine model (Langermann et al., 1997) |  |  |  |  |  |  |  | 99 |  |  |  | 
7 | CO/N=C(\C(=O)N[C@@H]1C(=O)N2C(C(=O)O)=C(CSC(=O)c3ccco3)CS[C@H]12)c1csc(N)n1 [Ceftiofur, ceftiofur] | 1.2% | 1 (≈ 1.91 µM) | 1 (≈ 1.91 µM) | 16 | 0.05 |  |  |  | 98.7 | 11 | 13 | 69
8 | CN(C)[C@@H]1C(O)=C(C(N)=O)C(=O)[C@@]2(O)C(O)=C3C(=O)c4c(O)cccc4[C@@](C)(O)[C@H]3C[C@@H]12 [Tetracycline, tetracycline] |  | 1 (≈ 2.25 µM) | 2 (≈ 4.5 µM) | 2 | 0.05 |  |  |  |  |  |  | 
